Measurements as given in ChEMBL document CHEMBL1137638, “TEM-158 (CMT-9), a new member of the CMT-type extended-spectrum beta-lactamases” (Antimicrob Agents Chemother, 2007).
Values after ≈ are worked out from the molar mass of the structure shown.

Legend:
Escherichia coli [1] = experiment: Antibacterial activity against Escherichia coli BER1 producing beta-lactamase pI 5.2 and pI 5.4 by microdilution method; format: functional
Escherichia coli [2] = experiment: Antibacterial activity against rifampin-resistant Escherichia coli C600 transconjugant producing beta-lactamase of pI 5.2 by microdilution method; format: functional
Escherichia coli [3] = experiment: Antibacterial activity against Escherichia coli DH5alpha producing beta-lactamase TEM-158 by microdilution method; format: functional
Escherichia coli [4] = experiment: Antibacterial activity against Escherichia coli DH5alpha producing beta-lactamase TEM-12 by microdilution method; format: functional
Escherichia coli [5] = experiment: Antibacterial activity against Escherichia coli DH5alpha producing beta-lactamase TEM-35 by microdilution method; format: functional
Escherichia coli [6] = experiment: Antibacterial activity against Escherichia coli DH5alpha producing beta-lactamase TEM-1 by microdilution method; format: functional
Escherichia coli [7] = experiment: Antibacterial activity against Escherichia coli DH5alpha by microdilution method; format: functional
Escherichia coli [8] = experiment: Antibacterial activity against rifampin-resistant Escherichia coli C600 by microdilution method; format: functional
[9] = Inhibition of Escherichia coli DH5alpha beta-lactamase TEM-12
[10] = Inhibition of Escherichia coli CF0042 beta-lactamase TEM-35
[11] = Inhibition of Escherichia coli DH5alpha CL1179 clone beta-lactamase TEM-152 after 10 mins
[12] = Inhibition of Escherichia coli DH10B beta-lactamase TEM-121 after 10 mins; set-up: species or system Escherichia coli str. K-12 substr. DH10B
[13] = Inhibition of Escherichia coli TO799 beta-lactamase TEM-125 after 10 mins

Row | SMILES | MIC (Escherichia coli [1]) [µg/mL] | MIC (Escherichia coli [2]) [µg/mL] | MIC (Escherichia coli [3]) [µg/mL] | MIC (Escherichia coli [4]) [µg/mL] | MIC (Escherichia coli [5]) [µg/mL] | MIC (Escherichia coli [6]) [µg/mL] | MIC (Escherichia coli [7]) [µg/mL] | MIC (Escherichia coli [8]) [µg/mL] | IC50 [9] [nM] | IC50 [10] [nM] | IC50 [11] [nM] | IC50 [12] [nM] | IC50 [13] [nM]
1 | CC(=O)OCC1=C(C(=O)O)N2C(=O)[C@@H](NC(=O)Cc3cccs3)[C@H]2SC1 [CEPHALOTHIN] | 32 (≈ 80.7 µM) | 16 (≈ 40.4 µM) | 32 (≈ 80.7 µM) | 8 (≈ 20.2 µM) | 16 (≈ 40.4 µM) | 4 (≈ 10.1 µM) | 4 (≈ 10.1 µM) | 4 (≈ 10.1 µM) | – | – | – | – | –
2 | CC1(C)S[C@@H]2[C@H](NC(=O)[C@H](C(=O)O)c3ccsc3)C(=O)N2[C@H]1C(=O)O [TICARCILLIN] | > 2050 | > 2050 | > 2050 | > 2050 | > 2050 | > 2050 | 2 (≈ 5.2 µM) | 2 (≈ 5.2 µM) | – | – | – | – | –
3 | CO/N=C(\C(=O)N[C@@H]1C(=O)N2C(C(=O)O)=C(COC(C)=O)CS[C@H]12)c1csc(N)n1 [CEFOTAXIME] | 0.25 (≈ 0.549 µM) | 0.25 (≈ 0.549 µM) | 0.25 (≈ 0.549 µM) | 0.12 (≈ 0.263 µM) | 0.06 (≈ 0.132 µM) | 0.06 (≈ 0.132 µM) | 0.06 (≈ 0.132 µM) | 0.06 (≈ 0.132 µM) | – | – | – | – | –
4 | C[C@@H](O)[C@H]1C(=O)N2C(C(=O)O)=C(SCCNC=N)C[C@H]12 [IMIPENEM ANHYDROUS] | – | – | – | 0.25 (≈ 0.835 µM) | – | – | – | – | – | – | – | – | –
5 | CC1(C)S[C@@H]2[C@H](NC(=O)[C@H](N)c3ccc(O)cc3)C(=O)N2[C@H]1C(=O)O [AMOXICILLIN] | > 2050 | > 2050 | > 2050 | > 2050 | > 2050 | > 2050 | 4 (≈ 10.9 µM) | 4 (≈ 10.9 µM) | – | – | – | – | –
6 | CO[C@@]1(NC(=O)Cc2cccs2)C(=O)N2C(C(=O)O)=C(COC(N)=O)CS[C@@H]21 [CEFOXITIN] | 0.25 (≈ 0.585 µM) | 4 (≈ 9.36 µM) | 4 (≈ 9.36 µM) | 4 (≈ 9.36 µM) | 4 (≈ 9.36 µM) | 4 (≈ 9.36 µM) | 4 (≈ 9.36 µM) | 4 (≈ 9.36 µM) | – | – | – | – | –
7 | CC(C)(O/N=C(\C(=O)N[C@@H]1C(=O)N2C(C(=O)[O-])=C(C[n+]3ccccc3)CS[C@H]12)c1csc(N)n1)C(=O)O [CEFTAZIDIME] | 16 (≈ 29.3 µM) | 16 (≈ 29.3 µM) | 32 (≈ 58.5 µM) | 32 (≈ 58.5 µM) | 0.25 (≈ 0.457 µM) | 0.12 (≈ 0.22 µM) | 0.12 (≈ 0.22 µM) | 0.12 (≈ 0.22 µM) | – | – | – | – | –
8 | C[C@]1(Cn2ccnn2)[C@H](C(=O)O)N2C(=O)C[C@H]2S1(=O)=O [TAZOBACTAM] | – | – | – | – | – | – | – | – | 130 | 1800 | – | – | –
9 | O=C(O)[C@H]1/C(=C/CO)O[C@@H]2CC(=O)N21 [CLAVULANIC ACID] | – | – | – | – | – | – | – | – | 20 | 27000 | 1000 | 1000 | 13600
10 | CO/N=C(\C(=O)N[C@@H]1C(=O)N2C(C(=O)[O-])=C(C[N+]3(C)CCCC3)CS[C@H]12)c1csc(N)n1 | 4 (≈ 8.32 µM) | 4 (≈ 8.32 µM) | 4 (≈ 8.32 µM) | 1 (≈ 2.08 µM) | < 0.06 | < 0.06 | < 0.06 | < 0.06 | – | – | – | – | –
11 | C[C@H]1[C@H](NC(=O)/C(=N\OC(C)(C)C(=O)O)c2csc(N)n2)C(=O)N1S(=O)(=O)O [AZTREONAM] | 1 (≈ 2.3 µM) | 1 (≈ 2.3 µM) | 1 (≈ 2.3 µM) | 4 (≈ 9.19 µM) | – | – | – | – | – | – | – | – | –
12 | CO/N=C(\C(=O)N[C@@H]1C(=O)N2C(C(=O)O)=C(COC(N)=O)CS[C@H]12)c1ccco1 [CEFUROXIME] | 8 (≈ 18.9 µM) | 4 (≈ 9.43 µM) | 8 (≈ 18.9 µM) | 8 (≈ 18.9 µM) | 8 (≈ 18.9 µM) | 4 (≈ 9.43 µM) | 4 (≈ 9.43 µM) | 4 (≈ 9.43 µM) | – | – | – | – | –
13 | CCN1CCN(C(=O)N[C@@H](C(=O)N[C@@H]2C(=O)N3[C@@H]2SC(C)(C)[C@@H]3C(=O)O)c2ccccc2)C(=O)C1=O [PIPERACILLIN] | 2050 (≈ 3960 µM) | 2050 (≈ 3960 µM) | 2050 (≈ 3960 µM) | > 2050 | > 2050 | 512 (≈ 989 µM) | 2 (≈ 3.86 µM) | 2 (≈ 3.86 µM) | – | – | – | – | –
